Values belong to the compound of their own block, whether it stands above or below them.
Experiment: solvent given as SMILES

absorption maximum (in ClC(Cl)Cl): 533 nm
Structure (SMILES): CCOC(CN1C(=O)C2=C(c3cccs3)N(CC(OCC)OCC)C(=O)C2=C1c1cccs1)OCC

absorption maximum (in O): 651 nm
Structure (SMILES): COc1ccc(OC)c(C2=C3C=CC(=[N+](C)C)C=C3[Si](C)(C)c3cc(N(C)C)ccc32)c1

Structure (SMILES): COc1ccc(-c2csc(/C(C#N)=C/c3ccc(C#N)cc3)n2)cc1
absorption maximum (in CC#N): 389 nm | absorption maximum (in CCO): 395 nm | absorption maximum (in CN(C)C=O): 395 nm | absorption maximum (in Cc1ccccc1): 400 nm | absorption maximum (in ClCCl): 396 nm

Structure (SMILES): CCNc1cc2oc(=O)cc(C(F)(F)F)c2cc1C
absorption maximum (in CC#N): 383 nm

absorption maximum (in ClC(Cl)Cl): 396 nm
Structure (SMILES): CC(C)(C)c1ccc2oc3nc4oc5ccc(-n6c7ccccc7c(=O)c7ccccc76)cc5c4cc3c2c1

Structure (SMILES): CCOC(=O)/C(C#N)=C/c1cc2c3ccccc3n(C)c2cc1OC
absorption maximum (in C1CCOC1): 407 nm | absorption maximum (in CC#N): 410 nm | absorption maximum (in CCOC(C)=O): 406 nm | absorption maximum (in CN(C)C=O): 417 nm | absorption maximum (in CO): 415 nm | absorption maximum (in CS(C)=O): 419 nm | absorption maximum (in Cc1ccccc1): 407 nm | absorption maximum (in ClC(Cl)Cl): 415 nm | absorption maximum (in ClCCl): 412 nm

absorption maximum (in C1COCCO1): 465 nm
Structure (SMILES): COc1ccc(C2=C/C(=C\c3ccc([N+](=O)[O-])cc3)C(=O)N2CC(C)C)cc1

absorption maximum (in C1CCCCC1): 320 nm | absorption maximum (in CO): 325 nm
Structure (SMILES): COc1ccc(/C=C(\C)c2nc3ccccc3o2)cc1

Structure (SMILES): Cc1ccc2c(c1)C1(c3ccccc3-c3ccccc31)c1cc(C)ccc1N2c1ccc2c(c1)Oc1ccccc1P2(=O)c1ccccc1 (stereo not given)
absorption maximum (in Cc1ccccc1): 311.25 nm

Structure (SMILES): CCCCCCOc1ccc(/C=C/c2ccc(N(c3ccc(/C=C/c4ccc(OCCCCCC)cc4)cc3)c3ccc(-c4nc5ccccc5nc4-c4ccc(N(c5ccc(/C=C/c6ccc(OCCCCCC)cc6)cc5)c5ccc(/C=C/c6ccc(OCCCCCC)cc6)cc5)cc4)cc3)cc2)cc1
absorption maximum (in C1CCOC1): 378 nm | absorption maximum (in Cc1ccccc1): 374 nm

absorption maximum (in CC#N): 419 nm | absorption maximum (in CCCCCC): 408 nm | absorption maximum (in CS(C)=O): 441 nm
Structure (SMILES): c1ccc2nc3c(nc2c1)c1c2n3CCCN2CCCC1

absorption maximum (in CCO): 542 nm | absorption maximum (in O): 544 nm
Structure (SMILES): CN(C)c1ccc2c(-c3cc(N)ccc3C(=O)[O-])c3ccc(=[N+](C)C)cc-3oc2c1

absorption maximum (in CC#N): 555 nm | absorption maximum (in CCO): 541 nm | absorption maximum (in CN(C)C=O): 560 nm | absorption maximum (in O): 552 nm
Structure (SMILES): CCOC(=O)c1ccccc1-c1c2ccc(=[N+](CC)CC)cc-2oc2cc(N(CC)CC)ccc12

Structure (SMILES): CC(C)(C)c1cc2ccc3cccc4c3c2c(c1)c1nc2c3cc(C(C)(C)C)cc5ccc6cccc(c(=O)n2c41)c6c53
absorption maximum (in C1CCOC1): 395 nm | absorption maximum (in CC#N): 389 nm | absorption maximum (in CC(C)=O): 391 nm | absorption maximum (in CCCCCC): 393 nm | absorption maximum (in CCO): 390 nm | absorption maximum (in CCOC(C)=O): 390 nm | absorption maximum (in CO): 382 nm | absorption maximum (in CS(C)=O): 391 nm | absorption maximum (in Cc1ccc(C)cc1): 392 nm | absorption maximum (in ClC(Cl)(Cl)Cl): 395 nm | absorption maximum (in ClC(Cl)Cl): 395 nm | absorption maximum (in c1ccccc1): 395 nm

absorption maximum (in CO): 405 nm
Structure (SMILES): COc1ccc2c(c1)SC1=Nc3sc4cc(OC)ccc4[n+]3CN12

absorption maximum (in C1CCOC1): 561 nm
Structure (SMILES): F[B-]1(F)n2c(-c3ccccc3)cc(-c3ccccc3)c2C(c2ccccc2)=C2C(c3ccccc3)=CC(c3ccccc3)=[N+]21

absorption maximum (in ClC(Cl)Cl): 430 nm
Structure (SMILES): F[B-]1(F)OC(c2ccc(Br)cc2)=Cc2ccc3ccccc3[n+]21

Structure (SMILES): CCCCCCCCCCCCN1C(=O)c2cccc3c(N(Cc4ccccn4)Cc4ccccn4)c4ccccc4c(c23)C1=O
absorption maximum (in C1CCOC1): 497 nm | absorption maximum (in CCCCCC): 480 nm | absorption maximum (in CCO): 488 nm | absorption maximum (in Cc1ccccc1): 492 nm | absorption maximum (in ClCCl): 500 nm

absorption maximum (in ClCCl): 523 nm
Structure (SMILES): COc1ccc(-c2c3ccccc3c(C#Cc3ccccc3)c3cc4ccccc4cc23)cc1

absorption maximum (in CC#N): 539 nm | absorption maximum (in CCCCCC): 562 nm | absorption maximum (in CO): 558 nm
Structure (SMILES): COc1ccc(N2c3cc(OC)ccc3N=c3cc4c(cc32)=Nc2cc(C(C)(C)C)cc(C(C)(C)C)c2O4)cc1

absorption maximum (in ClCCl): 345 nm
Structure (SMILES): Oc1ccc(Br)cc1-c1nc2c(c3c1-c1ccccc1CC3)-c1ccccc1CC2

absorption maximum (in C1CCCCC1): 351 nm | absorption maximum (in CC#N): 346 nm
Structure (SMILES): CN(C)c1ccc(-c2nc3cccnc3[nH]2)cc1

absorption maximum (in C1CCOC1): 339.52 nm
Structure (SMILES): COC(=O)C1(C(=O)OC)Cc2c(C#Cc3ccccc3)c(-c3ccccc3)c3c(-c4ccccc4)c(-c4ccccc4)c(-c4ccccc4)c(-c4ccccc4)c3c2C1

absorption maximum (in O): 299 nm
Structure (SMILES): Cc1cc(-c2ccc(-c3n(C)c4ccccc4[n+]3C)cc2)ccc1-c1ccc(-c2n(C)c3ccccc3[n+]2C)cc1

absorption maximum (in CCO): 640 nm | absorption maximum (in CO): 637 nm | absorption maximum (in CS(C)=O): 645 nm | absorption maximum (in O): 634 nm
Structure (SMILES): CN1/C(=C/C=C(/C=C/C2=[N+](C)c3ccccc3C2(C)C)c2ccccc2)C(C)(C)c2ccccc21

Structure (SMILES): COc1ccc2c(=O)c3c([nH]c2c1)-c1ccccc1NC3(C)C
absorption maximum (in C1CCOC1): 404 nm | absorption maximum (in CC#N): 415 nm | absorption maximum (in CCCCO): 424 nm | absorption maximum (in CCCO): 421 nm | absorption maximum (in CCO): 424 nm | absorption maximum (in CCOC(C)=O): 395 nm | absorption maximum (in CN(C)C=O): 421 nm | absorption maximum (in CO): 424 nm | absorption maximum (in CS(C)=O): 424 nm | absorption maximum (in Cc1ccccc1): 397 nm | absorption maximum (in ClC(Cl)(Cl)Cl): 404 nm | absorption maximum (in ClCCl): 403 nm | absorption maximum (in O): 383 nm | absorption maximum (in c1ccccc1): 402 nm

absorption maximum (in C1CCOC1): 417 nm
Structure (SMILES): COc1cc2c(c(OC)c1OC)c1ccc3cccc4c5cccc6oc(=O)c2c(c65)c1c34

Structure (SMILES): Cc1cccc(C2=CC3=C(c4c(C)cc(C)cc4C)c4cc(-c5cccc(C)c5)c(-c5cccc(C)c5)n4[B-](F)(F)[N+]3=C2c2cccc(C)c2)c1
absorption maximum (in C1CCCCC1): 579 nm | absorption maximum (in C1CCOC1): 577 nm | absorption maximum (in CC#N): 559 nm | absorption maximum (in Cc1ccccc1): 571 nm | absorption maximum (in ClCCl): 573 nm

absorption maximum (in ClCCl): 555 nm
Structure (SMILES): COc1cccc(OC)c1-c1c2ccc(=[N+]3CCN(C(=O)OC(C)(C)C)CC3)cc-2oc2cc(N3CCN(C(=O)OC(C)(C)C)CC3)ccc12

absorption maximum (in ClCCl): 421 nm
Structure (SMILES): CCCCCCCCCCOc1ccc(C#Cc2cc3c(C#Cc4ccc(OCCCCCCCCCC)cc4)c(C#Cc4ccc(OCCCCCCCCCC)cc4)c4cc(C#Cc5ccc(OCCCCCCCCCC)cc5)cc5c(C#Cc6ccc(OCCCCCCCCCC)cc6)c(C#Cc6ccc(OCCCCCCCCCC)cc6)c(c2)c3c45)cc1

absorption maximum (in CN(C)C=O): 592 nm
Structure (SMILES): CCN(CC)c1ccc(/C=C2\CC/C(=C\c3ccc(N(c4ccccc4)c4ccc(/C=C5\CC/C(=C\c6ccc(N(CC)CC)cc6)C5=C(C#N)C#N)cc4)cc3)C2=C(C#N)C#N)cc1

absorption maximum (in ClCCl): 607 nm
Structure (SMILES): CC(C)c1cccc(C(C)C)c1N1C(=O)c2ccc3c4c(-c5ccc(C(=O)O)cc5)c5ccc6c7c(cc8c9cc(C(=O)O)ccc9c(c9ccc(c2c39)C1=O)c4c8c57)C(=O)N(c1c(C(C)C)cccc1C(C)C)C6=O

absorption maximum (in ClCCl): 486 nm
Structure (SMILES): c1ccc(-c2ccc3c4ccc(-c5ccccc5)c5c(-c6ccccc6)ccc(c6ccc(-c7ccccc7)c2c36)c54)cc1

Structure (SMILES): Cc1ccc(C2=C3C=CC(C#Cc4ccccc4)=[N+]3[B-](F)(F)n3c(C#Cc4ccccc4)ccc32)cc1
absorption maximum (in C1CCCCC1): 615 nm | absorption maximum (in C1CCOC1): 610 nm | absorption maximum (in C1COCCO1): 612 nm | absorption maximum (in CCOC(C)=O): 607 nm | absorption maximum (in CO): 605 nm | absorption maximum (in Cc1ccccc1): 614 nm | absorption maximum (in ClC(Cl)Cl): 614 nm | absorption maximum (in ClCCl): 614 nm

absorption maximum (in C1CCOC1): 455 nm
Structure (SMILES): CC(C)(C)c1cc2c(c(C(C)(C)C)c1)O[B-]1(c3ccc([B-]45OC(c6ccccc6)=N[N+]4=Cc4cc(C(C)(C)C)cc(C(C)(C)C)c4O5)cc3)OC(c3ccccc3)=N[N+]1=C2 (stereo not given)
